Experiments:
CD69 = assay: Induction of CD69 in human whole blood; type: cell-based; details: Homo sapiens, 17 h, 100% set to 1 uM of resiquimod, average where assay performed multiple times, read-out: hWB CD69 EC50
Protocol: The induction of Type I interferon (IFN) MX-1 genes and the B-cell activation marker CD69 are downstream events that occur upon activation of the TLR7 pathway. The following is a human whole blood assay that measures their induction in response to a TLR7 agonist.
Heparinized human whole blood was harvested from human subjects and treated with test TLR7 agonist compounds at 1 mM. The blood was diluted with RPMI 1640 media and Echo was used to predot 10 nL per well giving a final concentration of 1 uM (10 nL in 10 uL of blood). After mixing on a shaker for 30 sec, the plates were covered and placed in a 37° C. chamber for o/n=17 hrs. Fixing/lysis buffer was prepared (5×->1× in H2O, warm at 37° C.; Cat #BD 558049) and kept the perm buffer (on ice) for later use.
For surface markers staining (CD69): prepared surface Abs: 0.045 ul hCD14-FITC (ThermoFisher Cat #MHCD1401)+0.6 ul hCD19-ef450 (ThermoFisher Cat #48-0198-42)+1.5 ul hCD69-PE (cat #BD555531)+0.855 ul FACS buffer. Added 3 ul/well, spin1000 rpm for 1 min and mixed on shaker for 30 sec, put on ice for 30 mins. Stop stimulation after 30 minutes with 70 uL of prewarmed 1× fix/lysis buffer and use Feliex mate to resuspend (15 times, change tips for each plate) and incubate at 37 C for 10 minutes.
Centrifuge at 2000 rpm for 5 minutes aspirate with HCS plate washer, mix on shaker for 30 sec and then wash with 70 uL in dPBS and pelleted 2×s (2000 rpm for 5 min) and 50 ul wash in FACS buffer pelleted 1×s (2000 rpm for 5 min). Mix on shaker for 30 sec. For Intracellular markers staining (MX-1): Add 50 ul of BD Perm buffer III and mix on shaker for 30 sec. Incubate on ice for 30 minutes (in the dark). Wash with 50 uL of FACS buffer 2×(spin @2300 rpm×5 min after perm) followed by mixing on shaker for 30 sec. Resuspended in 20 ul of FACS buffer containing MX1 antibody ( )(4812)-Alexa 647: Novus Biologicals #NBP2-43704AF647) 20 ul FACS bf+0.8 ul hIgG+0.04 ul MX-1. Spin 1000 rpm for 1 min, mix on shaker for 30 se and the samples were incubated at RT in the dark for 45 minutes followed by washing 2×FACS buffer (spin @2300 rpm×5 min after perm). Resuspend 20 ul (35 uL total per well) of FACS buffer and cover with foil and place in 4° C. to read the following day. Plates were read on iQuePlus. The results were loaded into toolset and IC50 curves are generated in curve master. The y-axis 100% is set to 1 uM of resiquimod.

human TLR7 = target: T1, human TLR7 (Homo sapiens, UniProt Q9NYK1); assay: Human TLR7 agonist activity assay (HEK-Blue TLR7 SEAP reporter); type: cell-based; details: HEK-Blue TLR7 cells, 18 h treatment, average where assay performed multiple times, read-out: hTLR7 Agonism EC50
T1 construct: host or cells: HEK-Blue TLR7 cells (engineered human embryonic kidney cells)
T1 sequence (Q9NYK1 27-1049): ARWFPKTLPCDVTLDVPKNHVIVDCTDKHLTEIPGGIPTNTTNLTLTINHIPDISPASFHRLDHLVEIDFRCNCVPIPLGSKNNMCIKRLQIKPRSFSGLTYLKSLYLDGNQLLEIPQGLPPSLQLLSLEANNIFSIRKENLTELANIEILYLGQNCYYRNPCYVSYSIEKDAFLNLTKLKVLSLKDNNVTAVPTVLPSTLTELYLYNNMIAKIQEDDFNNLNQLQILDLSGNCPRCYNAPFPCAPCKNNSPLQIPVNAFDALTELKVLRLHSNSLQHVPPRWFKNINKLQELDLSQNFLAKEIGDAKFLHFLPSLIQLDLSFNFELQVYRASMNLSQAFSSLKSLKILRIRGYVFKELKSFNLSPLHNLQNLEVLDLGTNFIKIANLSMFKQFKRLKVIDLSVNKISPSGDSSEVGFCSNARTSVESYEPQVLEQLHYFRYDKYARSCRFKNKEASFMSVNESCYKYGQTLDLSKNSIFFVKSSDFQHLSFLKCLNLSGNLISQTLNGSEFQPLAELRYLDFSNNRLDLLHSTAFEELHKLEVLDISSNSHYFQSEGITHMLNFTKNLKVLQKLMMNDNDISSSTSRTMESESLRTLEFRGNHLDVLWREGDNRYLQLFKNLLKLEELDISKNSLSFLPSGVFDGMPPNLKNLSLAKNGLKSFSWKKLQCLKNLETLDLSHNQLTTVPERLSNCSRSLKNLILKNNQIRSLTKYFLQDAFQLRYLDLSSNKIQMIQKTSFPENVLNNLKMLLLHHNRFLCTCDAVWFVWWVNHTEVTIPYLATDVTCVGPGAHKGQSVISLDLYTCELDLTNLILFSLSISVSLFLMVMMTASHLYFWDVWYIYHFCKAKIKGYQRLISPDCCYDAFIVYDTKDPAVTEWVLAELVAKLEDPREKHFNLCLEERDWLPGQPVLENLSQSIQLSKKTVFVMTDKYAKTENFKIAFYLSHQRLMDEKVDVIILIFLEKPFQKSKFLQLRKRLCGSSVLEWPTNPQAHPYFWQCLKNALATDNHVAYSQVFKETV
Outline: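 HEK-Blue TLR7 cells (15,000/well) treated with compound for 18 h at 37 °C, 5% CO2. Secreted SEAP measured with Quanti-Blue, 30 min, OD 620 nm. EC50 taken as concentration giving half-maximal response between baseline and maximum.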

| EC50 (CD69) [nM] | EC50 (human TLR7) [nM] | Compound |
| --- | --- | --- |
| 1000 | 339 | CCCCNc1nc(N)nc2cnn(Cc3cc(F)c(N4CCN(C(=O)CN5CC(O)C5)CC4)cc3OC)c12 [Compound 199, 1-[4-(4-{[5-amino-7-(butylamino)-1H-pyrazolo[4,3-d]pyrimidin-1-yl]methyl}-2-fluoro-5-methoxyphenyl)piperazin-1-yl]-2-(3-hydroxyazetidin-1-yl)ethan-1-one] |
| 3.5 | 48.4 | CCCCNc1nc(N)nc2cnn(Cc3ncc(C4CCN(C(=O)CN(C)C)CC4)cc3OC)c12 [Compound 128, 1-[4-(6-{[5-amino-7-(butylamino)-1H-pyrazolo[4,3-d]pyrimidin-1-yl]methyl}-5-methoxypyridin-3-yl)piperidin-1-yl]-2-(dimethylamino)ethan-1-one] |
| 2.1 | 15.7 | CCC[C@@H](CCO)Nc1nc(N)nc2cnn(Cc3ncc(C4CCN(C5CC6(CCC6)C5)CC4)cc3OC)c12 [Compound 147, (3S)-3-[(5-amino-1-{[3-methoxy-5-(1-{spiro[3.3]heptan-2-yl}piperidin-4-yl)pyridin-2-yl]methyl}-1H-pyrazolo[4,3-d]pyrimidin-7-yl)amino]hexan-1-ol] |
| 0.47 | 6.8 | CCC[C@@H](CCO)Nc1nc(N)nc2cnn(Cc3cnc(C4CCN(C5CCOCC5)CC4)cc3OC)c12 [Compound 168, (3S)-3-{[5-amino-1-({4-methoxy-6-[1-(oxan-4-yl)piperidin-4-yl]pyridin-3-yl}methyl)-1H-pyrazolo[4,3-d]pyrimidin-7-yl]amino}hexan-1-ol] |
| 4.8 | 51.9 | CCCCNc1nc(N)nc2cnn(Cc3ncc(C4CCN(C5CCC5)CC4)cc3OC)c12 [Compound 108, N7-butyl-1-{[5-(1-cyclobutylpiperidin-4-yl)-3-methoxypyridin-2-yl]methyl}-1H-pyrazolo[4,3-d]pyrimidine-5,7-diamine] |
| 9.8 | 85.3 | CCC[C@@H](CCO)Nc1nc(N)nc2cnn(Cc3nc(C4CCN(C5CCOCC5)CC4)ccc3OC)c12 [Compound 189, (3S)-3-{[5-amino-1-({3-methoxy-6-[1-(oxan-4-yl)piperidin-4-yl]pyridin-2-yl}methyl)-1H-pyrazolo[4,3-d]pyrimidin-7-yl]amino}hexan-1-ol] |
| 69.4 | 224 | COc1cc(C2CCN(C3CNC3)CC2)cnc1Cn1ncc2nc(N)nc(NCC3CC4(CC4)C3)c21 [Compound 158, 1-({5-[1-(azetidin-3-yl)piperidin-4-yl]-3-methoxypyridin-2-yl}methyl)-N7-({spiro[2.3]hexan-5-yl}methyl)-1H-pyrazolo[4,3-d]pyrimidine-5,7-diamine] |
| 121 | 496 | CCCCNc1nc(N)nc2cnn(Cc3ncc(C4=CC(C)(C)NC(C)(C)C4)cc3OC)c12 [Compound 169, N7-butyl-1-({5-methoxy-2′,2′,6′,6′-tetramethyl-1′,2′,3′,6′-tetrahydro-[3,4′-bipyridine]-6-yl}methyl)-1H-pyrazolo[4,3-d]pyrimidine-5,7-diamine] |
| 58.2 | 193 | CCCCNc1nc(N)nc2cnn(Cc3cc(F)c(N4CCNCC4)cc3OC)c12 [Compound 192, N7-butyl-1-{[5-fluoro-2-methoxy-4-(piperazin-1-yl)phenyl]methyl}-1H-pyrazolo[4,3-d]pyrimidine-5,7-diamine] |
| 44.1 | 88.8 | CCC[C@@H](CCO)Nc1nc(N)nc2cnn(Cc3ncc(C4CCN(C5CC6(CNC6)C5)CC4)cc3OC)c12 [Compound 150, (3S)-3-[(5-amino-1-{[5-(1-{2-azaspiro[3.3]heptan-6-yl}piperidin-4-yl)-3-methoxypyridin-2-yl]methyl}-1H-pyrazolo[4,3-d]pyrimidin-7-yl)amino]hexan-1-ol] |
| 0.91 | 8.8 | CCC[C@@H](CCO)Nc1nc(N)nc2cnn(Cc3ccc(C4CCCN4)cc3OC)c12 (stereo partly drawn) [Compound 175, (3S)-3-[(5-amino-1-{[2-methoxy-4-(pyrrolidin-2-yl)phenyl]methyl}-1H-pyrazolo[4,3-d]pyrimidin-7-yl)amino]hexan-1-ol] |
| 22.5 | 45.5 | CCC[C@@H](CCO)Nc1nc(N)nc2cnn(Cc3cnc(C4CCNCC4)cc3OC)c12 [Compound 166, (3S)-3-[(5-amino-1-{[4-methoxy-6-(piperidin-4-yl)pyridin-3-yl]methyl}-1H-pyrazolo[4,3-d]pyrimidin-7-yl)amino]hexan-1-ol] |
| 444 | 383 | CCCCNc1nc(N)nc2c(C3CC3)nn(Cc3ncc(C4CCN(C)CC4)cc3OC)c12 [Compound 107, N7-butyl-3-cyclopropyl-1-{[3-methoxy-5-(1-methylpiperidin-4-yl)pyridin-2-yl]methyl}-1H-pyrazolo[4,3-d]pyrimidine-5,7-diamine] |
| 50.9 | 48.2 | CCCCNc1nc(N)nc2cnn(Cc3cc(F)c(N4CCN(C(=O)CN5CCC[C@H]5CO)CC4)cc3OC)c12 [Compound 198, 1-[4-(4-{[5-amino-7-(butylamino)-1H-pyrazolo[4,3-d]pyrimidin-1-yl]methyl}-2-fluoro-5-methoxyphenyl)piperazin-1-yl]-2-[(2S)-2-(hydroxymethyl)pyrrolidin-1-yl]ethan-1-one] |
| 42.6 | 209 | CCCCNc1nc(N)nc2cnn(Cc3ncc(C4CC(C)(C)NC(C)(C)C4)cc3OC)c12 [Compound 170, N7-butyl-1-{[3-methoxy-5-(2,2,6,6-tetramethylpiperidin-4-yl)pyridin-2-yl]methyl}-1H-pyrazolo[4,3-d]pyrimidine-5,7-diamine] |
| 42.3 | 197 | CCC[C@@H](CCO)Nc1nc(N)nc2cnn(Cc3ncc(C4CCN(C(=O)CCN(C)C)CC4)cc3OC)c12 [Compound 136, 1-(4-{6-[(5-amino-7-{[(3S)-1-hydroxyhexan-3-yl]amino}-1H-pyrazolo[4,3-d]pyrimidin-1-yl)methyl]-5-methoxypyridin-3-yl}piperidin-1-yl)-3-(dimethylamino)propan-1-one] |
| 2.8 | 89.9 | CCC[C@@H](CCO)Nc1nc(N)nc2cnn(Cc3ncc(C4CCCCCN4)cc3OC)c12 (mixture of isomers) [Compound 183, (3S)-3-[(5-amino-1-{[5-(azepan-2-yl)-3-methoxypyridin-2-yl]methyl}-1H-pyrazolo[4,3-d]pyrimidin-7-yl)amino]hexan-1-ol] |
